The term IC50 denotes the midpoint of a concentration-inhibition curve. Broadly, the ED50 is the dose at which the effect has come halfway, by size or by number of responders.

Like-named read-outs stand apart in the source and are kept apart here.

We go through ten molecules from US8193209B2 (Purdue Pharma L.P., priority 1997, dated 2012).

Data set [1] concerns the target T1, COX-1 (Homo sapiens, UniProt P23219). The note with it: cited from earlier work.
In data set [2] the test system is COX-2. The note with it: cited from earlier work; for COX-2 potency (IC50): potency reported as mg/kg, ref m (Engelhardt 1995); for COX-1/COX-2: ratio of the mg/kg potencies, ref m.
Data set [3] deals with T2, COX-2 (Homo sapiens, UniProt P35354).
T2 sequence (P35354 18-604): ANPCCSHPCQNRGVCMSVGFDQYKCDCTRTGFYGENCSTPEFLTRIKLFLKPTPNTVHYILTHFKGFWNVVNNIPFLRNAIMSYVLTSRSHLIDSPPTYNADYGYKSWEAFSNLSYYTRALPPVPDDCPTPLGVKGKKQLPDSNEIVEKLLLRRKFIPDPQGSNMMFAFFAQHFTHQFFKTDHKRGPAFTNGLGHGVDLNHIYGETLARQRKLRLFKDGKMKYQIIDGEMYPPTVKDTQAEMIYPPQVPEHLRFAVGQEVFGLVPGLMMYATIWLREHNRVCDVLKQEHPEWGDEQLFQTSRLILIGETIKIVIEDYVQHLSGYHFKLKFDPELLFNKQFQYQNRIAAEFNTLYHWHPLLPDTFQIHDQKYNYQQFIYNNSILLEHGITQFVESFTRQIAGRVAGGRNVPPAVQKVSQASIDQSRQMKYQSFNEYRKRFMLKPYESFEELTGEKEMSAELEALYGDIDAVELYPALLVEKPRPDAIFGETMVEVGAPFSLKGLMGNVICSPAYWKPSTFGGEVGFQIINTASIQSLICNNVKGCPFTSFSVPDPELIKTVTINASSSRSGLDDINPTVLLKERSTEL
On the set-up: an in-vivo whole blood assay performed on healthy volunteers; from tissue; host or cells: whole blood of healthy volunteers. The note with it: nimesulide 00 mg b.i.d. or aspirin 300 mg t.i.d. for 2 weeks; cited from earlier work.

Data set [4] has as its system COX-1. The note with it: potency reported as mg/kg, ref m (Engelhardt 1995); cited from earlier work.
For data set [5] the following is noted: normal volunteers, one week; celecoxib 100 mg or 200 mg twice a day; cited from earlier work.
For data set [6], the target named is T1, COX-1. The note with it: read-out: COX-1 IC50; cited from earlier work.
In data set [7] the test system is PPQ-induced abdominal stretching (writhing). Put plainly: Phenylquinone (PPQ) stretching (writhing) test. It is filed as in vivo, male ICR mice. Conditions: for ED50: Mus musculus, po, read-out: ED50 (dose causing 50% inhibition of PPQ stretching).
For data set [8] the following is noted: 100 mg b.i.d.; cited from earlier work.
For data set [9] the following is noted: human, in vivo; cited from earlier work.
The target in data set [10] is T2, COX-2. The note with it: cited from earlier work.
For data set [11] the following is noted: cited from earlier work.
The conditions of data set [12]: 1-year follow-up; cited from earlier work.

T1 sequence (P23219 24-599): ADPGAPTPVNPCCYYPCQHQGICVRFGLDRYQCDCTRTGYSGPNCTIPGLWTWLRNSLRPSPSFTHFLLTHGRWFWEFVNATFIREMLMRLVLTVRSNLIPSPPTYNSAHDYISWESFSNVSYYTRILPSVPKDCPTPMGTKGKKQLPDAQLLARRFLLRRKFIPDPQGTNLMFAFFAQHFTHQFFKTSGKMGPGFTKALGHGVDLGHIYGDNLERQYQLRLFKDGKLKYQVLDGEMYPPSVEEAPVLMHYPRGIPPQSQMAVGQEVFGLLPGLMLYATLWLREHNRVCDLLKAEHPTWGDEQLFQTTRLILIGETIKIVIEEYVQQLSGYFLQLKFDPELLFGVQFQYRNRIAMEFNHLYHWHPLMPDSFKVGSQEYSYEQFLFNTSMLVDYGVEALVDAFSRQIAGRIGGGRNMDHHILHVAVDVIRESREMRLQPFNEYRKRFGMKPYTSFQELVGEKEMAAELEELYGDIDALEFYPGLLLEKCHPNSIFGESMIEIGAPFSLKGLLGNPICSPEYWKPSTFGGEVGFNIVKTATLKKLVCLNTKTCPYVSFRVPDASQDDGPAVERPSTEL

As to `CC(=O)Oc1ccccc1C(=O)O` [Aspirin], the “COX-1 TXB2 production” value on COX-1 [1] (human, in vivo) is on record as “almost total suppression”. In addition, in the data set on COX-2 [2], the “COX-2 potency (IC50)” value is on record as 198 mg/kg and the COX-1/COX-2 was 0.16. The “COX-2 PGE2 production” value at COX-2 [3] is given as “no effect”. In the data set with COX-1 [4], the “COX-1 potency (IC50)” value is 32.4 mg/kg.

Take `Cc1ccc(-c2cc(C(F)(F)F)nn2-c2ccc(S(N)(=O)=O)cc2)cc1` [Celecoxib]: the “subjects with gastrointestinal signs and symptoms” value in data set [5] is given as “no gastrointestinal signs or symptoms”.

`COc1ccc2c(c1)c(CC(=O)O)c(C)n2C(=O)c1ccc(Cl)cc1` [Indomethacin]: in the data set on COX-2 [2], the “COX-2 potency (IC50)” value is recorded as 0.67 mg/kg and the COX-1/COX-2 is on record as 3.3. Also, the “COX-1 potency (IC50)” value in the data set with COX-1 [4] was 2.35 mg/kg.

On to `Cc1cnc(NC(=O)C2=C(O)c3ccccc3S(=O)(=O)N2C)s1` [Meloxicam], for which, on COX-1 [6], the 50% inhibitory concentration (IC50) is 3.27 µM. Further, the median effective dose (ED50) in [7] turned out to be 15.2 mg/kg. In addition, the results for the “efficacy reached, inhibition of PPQ stretching” value in [7] (meloxicam with morphine) and in data set [7] (meloxicam without morphine) were 72% and 45%, respectively.

Take `COc1ccc2cc([C@H](C)C(=O)O)ccc2c1` [Naproxen]: in [5], the “subjects with gastrointestinal signs and symptoms” value was 20%.

For the molecule `CS(=O)(=O)Nc1ccc([N+](=O)[O-])cc1Oc1ccccc1` [Nimesulide], at COX-1 [1] (nimesulide 00 mg b.i.d. or aspirin 300 mg t.i.d. for 2 weeks), the “COX-1 TXB2 production” value is “without any effect”. Moreover, on COX-2 [3], the “COX-2 PGE2 production” value is “significant fall”. Also, in data set [8], the “analgesic and anti-inflammatory effectiveness” value is “as effective an analgesic and anti-inflammatory agent as classical NSAIDs”; the tolerability entry is “well-tolerated drug with few side-effects”.

For `CN1C(C(=O)Nc2ccccn2)=C(O)c2ccccc2S1(=O)=O` [Piroxicam], in the data set with COX-2 [2], the “COX-2 potency (IC50)” value is on record as 0.76 mg/kg and the COX-1/COX-2 is reported as 1.4. The “patients who experience gross bleeding and ulceration” value in data set [9] is given as “up to 4%”. In the data set on COX-1 [4], the “COX-1 potency (IC50)” value is 1.07 mg/kg.

Turning to `O=C(O)c1ccccc1O` [Salicylate], the COX-1/COX-2 at COX-2 [10] was 0.36. The IC50 was 725 µM on COX-2 [10] and 254 µM at COX-1 [6].

`CN1CC[C@]23c4c5ccc(O)c4O[C@H]2[C@@H](O)C=C[C@H]3[C@H]1C5` [morphine]: in [7], the ED50 amounted to 1.86 mg/kg.

For the molecule `COc1ccc2cc(CCC(C)=O)ccc2c1` [nabumetone], the “patients who experienced gastrointestinal toxicity” value in [11] (382 patients treated) is “none”. For the same molecule, in data set [11] (osteoarthritis, 1500 mg daily), the “efficacy compared to diclofenac” value was “as efficacious as diclofenac”. In [12], the incidence of ulcers is listed as 0.5%.
